Patent US11701394B2, “Compositions and methods for treating cholestatic disease” (Seres Therapeutics, Inc., priority 2017, dated 2023)

How the values were obtained:
FXR = FXR signaling in mice: CYP7A1 (liver) and FGF-15 (ileum) expression
Source text: We therefore tested a dose range of OCA as well as a fixed concentration of CA for their effects on FXR signaling in mice. Ileal and liver FXR signaling was monitored based on the expression of CYP7A1 (liver) and FGF-15 (Ileum).

human FXR = target: T1, human FXR (Homo sapiens, UniProt Q96RI1); conditions: in the presence of 50 uM CDCA
T1 sequence (Q96RI1 262-486 limits assumed): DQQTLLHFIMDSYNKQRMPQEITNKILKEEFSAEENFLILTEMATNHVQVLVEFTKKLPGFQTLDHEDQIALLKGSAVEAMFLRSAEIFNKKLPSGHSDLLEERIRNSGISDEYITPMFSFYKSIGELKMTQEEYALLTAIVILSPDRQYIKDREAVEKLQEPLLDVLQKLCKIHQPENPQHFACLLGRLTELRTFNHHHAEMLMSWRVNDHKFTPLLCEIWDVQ
Procedure: FXR reporter cell assays were performed by Indigo Biosciences as directed by Seres Therapeutics using Indigo's FXR reporter CHO cell line, which expresses an FXR receptor hybrid in which the native N-terminal DNA binding domain (DBD) has been replaced with that of a yeast Gal4 DBD. The reporter gene, firefly luciferase, is functionally linked to a Gal4 upstream activation sequence (UAS). […] Luminescence was determined following incubation with substrate and a detection reagent. In addition, live cell count was determined within the assay using a Live Cell Multiplex (LCM) Assay (Indigo Biosciences).

SMILES	CYP7A1 expression (liver) (FXR)	FGF-15 levels (ileum) (FXR)	hFXR activation in combination with CDCA (human FXR)
CC[C@H]1[C@@H](O)[C@@H]2[C@H](CC[C@]3(C)[C@@H]([C@H](C)CCC(=O)O)CC[C@@H]23)[C@@]2(C)CC[C@@H](O)C[C@@H]12 [OCA, obeticholic acid]	dose dependent decrease in CYP7A1 expression	increase in FGF-15 levels	–
C[C@H](CCC(=O)O)[C@H]1CC[C@H]2[C@@H]3[C@H](O)[C@H](O)[C@@H]4C[C@H](O)CC[C@]4(C)[C@H]3CC[C@]12C [HCA, hyocholic acid]	–	–	activated human FXR in a dose-dependent and synergistic manner
C[C@H](CCC(=O)O)[C@H]1CC[C@H]2[C@@H]3[C@H](O)C[C@@H]4C[C@H](O)CC[C@]4(C)[C@H]3C[C@H](O)[C@]12C [cholic acid]	decreased CYP7A1 expression	increased FGF-15 levels in the ileum	–
